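Step 1: Grow cells in 96-well plates. Step 2: Expose to compound for 48 hours at 5 concentrations. Step 3: Interpolate endpoints linearly; if unreached, use highest concentration. The concentration for full growth arrest is given as TGI.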
Tests used:
Assay in all cases: growth of human tumour cells (NCI), 48 h
ACHN renal = system: ACHN renal
BT-549 breast = system: BT-549 breast
HCT-116 colon = system: HCT-116 colon
HS 578T breast = system: HS 578T breast
HT29 colon = system: HT29 colon
OVCAR-3 ovarian = system: OVCAR-3 ovarian
OVCAR-5 ovarian = system: OVCAR-5 ovarian
SR leukemia = system: SR leukemia
TK-10 renal = system: TK-10 renal
NCI-H522 lung = system: NCI-H522 lung

SMILES | TGI (ACHN renal) [µM] | TGI (BT-549 breast) [µM] | TGI (HCT-116 colon) [µM] | TGI (HS 578T breast) [µM] | TGI (HT29 colon) [µM] | TGI (OVCAR-3 ovarian) [µM] | TGI (OVCAR-5 ovarian) [µM] | TGI (SR leukemia) [µM] | TGI (TK-10 renal) [µM] | TGI (NCI-H522 lung) [µM]
C=CCn1c(-c2cc(C(C)(C)C)c(O)c(C(C)(C)C)c2)cs/c1=N\C(P(=O)(O)O)P(=O)(O)O | > 100 | > 100 | > 100 | > 100 | > 100 | > 100 | > 100 | > 100 | > 100 | –
COc1ccccc1N1CCN(CCCCNC(=O)c2ccc([N+](=O)[O-])o2)CC1 | 25.2 | 14.7 | 24.6 | 41 | 9.92 | 17.8 | 33.1 | > 58.3 | 18.3 | 7.26
CC12NC(=C(C#N)C#N)C(C#N)=C3NC(N)=C(C#N)C(=C31)Oc1ccccc12 (stereo not given) | > 100 | > 100 | > 100 | > 100 | > 100 | > 24.9 | > 100 | > 100 | > 100 | > 100
Cc1sc2c(c1C)C(=O)c1cccn1-2 | > 100 | > 100 | > 100 | > 100 | > 100 | > 100 | > 100 | > 100 | > 100 | > 100
COc1cc(C2CC(C)(N3CCOCC3)Oc3cc4c(cc32)OCO4)cc(OC)c1OC (stereo not given) | > 100 | > 100 | > 100 | > 56.2 | – | > 100 | > 100 | > 100 | – | > 100
O=C1c2ccccc2N=C(c2cc3c(cc2Cl)Sc2nccn2S3(=O)=O)OS(=O)(=O)N1c1ccccc1 | > 100 | 61.1 | 31.5 | > 100 | 61 | > 100 | 78.8 | 26.2 | > 100 | 25.5
CCCNC1=C2C[C@@H](C)C[C@@H](OC)[C@@H](OC(=O)CCCN)[C@H](C)/C=C(\C)[C@@H](OC(N)=O)[C@H](OC)/C=C\C=C(/C)C(=O)NC(=CC1=O)C2=O | 37.6 | 29.4 | 28.3 | 60.9 | 22.9 | 24 | 30.5 | > 23.8 | 36.1 | 19.1
COC(=O)C1OC(O[C@H]2CC[C@]3(C)[C@H]4CC=C5[C@@H]6CC(C)(C)CC[C@]6(C(=O)OC)CC[C@@]5(C)[C@]4(C)CC[C@H]3C2(C)C)C(O)C(O)C1O (stereo not given in full) | 24.2 | 32.1 | 26.2 | 46.8 | 22.9 | 15.5 | 27.7 | 14.4 | – | 35.2
c1ccc(CN2CCC(=NN3CCCCC3)CC2)cc1 | > 100 | > 100 | > 100 | > 100 | > 100 | > 100 | > 100 | > 100 | > 100 | > 100
C=C1CC[C@@]2(C)[C@@H]([C@@H]1C)[C@H]1CC[C@@H]3[C@@]4(C)CC[C@H](O)C(C)(C)[C@@H]4CC[C@@]3(C)[C@]1(C)C[C@@H]2O | 4.44 | 34.6 | > 23.9 | 7.29 | 19.6 | 16.1 | 17.7 | > 100 | 27 | 4.52
O=[N+]([O-])c1cc(Br)cc2cc(Cl)cnc12 | > 100 | > 100 | > 100 | > 100 | > 100 | > 100 | > 100 | > 100 | > 100 | > 100
O=C(Nc1ccccc1)c1cc2ccccc2c(N=Nc2cccc([N+](=O)[O-])c2)c1O | > 100 | > 100 | > 100 | 99.1 | > 100 | > 100 | > 100 | > 100 | > 100 | > 100
CC(C)C[S+]1C2=C([O-])CC(C)(C)CC2=Nc2ccccc21 (stereo not given) | > 100 | > 100 | > 100 | > 100 | > 100 | > 100 | > 100 | 75.8 | > 100 | > 100
CC(=O)N1C(C(=O)NN2CCOCC2)CSC1c1ccccc1 (stereo not given) | > 100 | > 100 | > 100 | > 100 | > 100 | > 100 | > 100 | > 100 | > 100 | > 100
NC(Cc1ccc(O)cn1)C(=O)NC(C(=O)O)c1ccccc1 (stereo not given) | > 100 | > 100 | > 100 | > 100 | > 100 | > 100 | > 100 | > 100 | > 100 | > 100
COC(CNC(=O)CNC(=O)c1ccc(C(F)(F)F)cc1)OC | > 100 | > 100 | > 100 | > 100 | > 100 | – | > 100 | > 100 | > 100 | > 100
COc1ccc(C=Nc2ccc(-c3nc4ccccc4s3)cc2)cc1OC | 70.5 | > 100 | > 100 | > 100 | > 100 | 51.9 | > 100 | > 100 | 69 | 47.4
CN(C)CCCNC(=O)N/N=C/c1ccc(O)cc1 | > 100 | > 100 | > 100 | > 100 | > 100 | > 100 | > 100 | > 100 | > 100 | > 100
C[C@@H]1C[C@H]2OC(=O)[C@@]3(C)CCC[C@@](C)([C@@H]23)[C@@]1(O)CCc1ccoc1 | > 100 | > 100 | > 100 | > 100 | > 100 | > 100 | > 100 | > 88.9 | > 100 | > 100
Nc1nc(Cl)cc(NCC2(CO)CCCCC2)n1 | > 100 | > 100 | > 100 | > 100 | > 100 | > 100 | > 100 | > 100 | > 100 | > 100

Source: PubChem BioAssay (NCI)
